In BigSolDB 2.1:

O=C1C=CC(=O)c2ccccc21
Conditions	solubility (mole fraction)
in acetone, 293.27 K	0.0362
in acetone, 295.46 K	0.0373
in acetone, 295.8 K	0.0377
in acetone, 298.25 K	0.0399
in acetone, 298.51 K	0.0403
in acetone, 299.07 K	0.0411
in acetone, 300.66 K	0.0437
in acetone, 302.06 K	0.0467
in acetone, 304 K	0.0503
in acetone, 305.3 K	0.0532
in acetone, 308.24 K	0.0584
in acetone, 311.24 K	0.0639
in acetone, 312.91 K	0.0683
in acetone, 314.97 K	0.0727
in acetone, 316.33 K	0.0767
in acetone, 318.06 K	0.081
in acetone, 319.63 K	0.0856
in ethanol, 279.8 K	0.00145
in ethanol, 285.78 K	0.00221
in ethanol, 289.05 K	0.00277
in ethanol, 292.72 K	0.00335
in ethanol, 296.52 K	0.00412
in ethanol, 299.87 K	0.00487
in ethanol, 303.25 K	0.00596
in ethanol, 305.99 K	0.00696
in ethanol, 309.13 K	0.00825
in ethanol, 311.85 K	0.00945
in ethanol, 314.73 K	0.0109
in ethanol, 316.84 K	0.0121
in ethanol, 319.52 K	0.0134
in ethanol, 321.15 K	0.0145
in ethanol, 322.93 K	0.0157
in ethanol, 328.25 K	0.0199
in ethanol, 329.13 K	0.0212
in ethanol, 331.34 K	0.0235
in ethanol, 333.04 K	0.0256
in ethanol, 334.13 K	0.0274
in ethanol, 335.43 K	0.0294
in n-butanol, 302.1 K	0.00657
in n-butanol, 307.2 K	0.00908
in n-butanol, 312.32 K	0.012
in n-butanol, 317.1 K	0.0152
in n-butanol, 319.33 K	0.017
in n-butanol, 320.94 K	0.0183
in n-butanol, 322.16 K	0.0199
in n-butanol, 325.85 K	0.0238
in n-butanol, 330.35 K	0.0307
in n-butanol, 334.33 K	0.0377
in n-butanol, 336.45 K	0.0434
in n-butanol, 339.23 K	0.05
in n-butanol, 341.3 K	0.056
in n-butanol, 343.26 K	0.0624
in n-butanol, 344.6 K	0.0695
in n-butanol, 346.03 K	0.0763
in toluene, 294.1 K	0.0476
in toluene, 297.82 K	0.0537
in toluene, 300.35 K	0.0585
in toluene, 302.68 K	0.0631
in toluene, 304.44 K	0.0668
in toluene, 306.58 K	0.0723
in toluene, 310.16 K	0.081
in toluene, 313.15 K	0.089
in toluene, 315.25 K	0.094
in toluene, 317.27 K	0.0994
in toluene, 319.93 K	0.107
in toluene, 321.45 K	0.113
in toluene, 322.53 K	0.116
in toluene, 322.93 K	0.118
in toluene, 327.2 K	0.133
in toluene, 330.45 K	0.145
in toluene, 331.95 K	0.153
